The results in this text go back to ChEMBL document CHEMBL1201862, “PubChem BioAssay data set” (2004).

SMILES strings stand for the structures.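 Tested at 5 concentrations; 48 h exposure; 96-well plates; endpoints linearly interpolated, else capped at highest concentration. GI50 = concentration required for 50% inhibition of growth.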 Active and inactive are the calls of the source. Rule as the data show it: active = GI50 up to about 1.1 µM and inactive = higher.

Common to all, as to assay: inhibition of tumour cell growth, NCI panel, 48 h
Assay [1] has as its system 786-0.
The test system of assay [2] is NCI-H226.
In assay [3] the test system is LOX IMVI.
For assay [4], the system named is MCF7.
The test system of assay [5] is OVCAR-8.
The test system of assay [6] is OVCAR-5.
Assay [7] relates to SK-MEL-2.
In assay [8] the test system is CCRF-CEM.
In assay [9] the test system is HOP-92.
Assay [10] relates to MDA-MB-231.
The subject of assay [11] is HT-29.
The subject of assay [12] is HL-60.
The test system of assay [13] is M14.
For assay [14], the system named is KM12.
For assay [15], the system named is CAKI-1.
The subject of assay [16] is ACHN.
For assay [17], the system named is SW-620.
In assay [18] the test system is A549.
Assay [19] relates to SN12C.
Assay [20] relates to Hs-578T.

Take `COc1cc(C2c3cc4c(cc3OC(NNC(N)=O)C2C)OCO4)cc(OC)c1O` (stereo not drawn): the GI50 in assay [1] was 2.99 µM (inactive); in assay [2], 6.65 µM (inactive); in [3] it was 4.06 µM (inactive); in assay [4], 1.64 µM (inactive); in assay [5] it was 4.5 µM (inactive); in assay [6], 6.59 µM (inactive). Further, the GI50 in [7] is 6.18 µM (inactive); in assay [8], 2.5 µM (inactive); in assay [9], 15.3 µM (inactive); in [10], 5.05 µM (inactive); in assay [11], 3.13 µM (inactive); in assay [12] it was 0.867 µM (active). In addition, the GI50 in [13] is 2.73 µM (inactive); in assay [14], 0.813 µM (active); in assay [15], 7.91 µM (inactive); in assay [16], 5.93 µM (inactive); in assay [17], 1.2 µM (inactive); in [18] it was 3.45 µM (inactive). In addition, the GI50 was 4.9 µM (inactive) in assay [19] and 2.22 µM (inactive) in [20].

For the compound `CC(C)(C)NC(NC(C)(C)C)=C(/C=C(/Cl)[N+](=O)[O-])[N+](=O)[O-]`, the GI50 was 34.7 µM (inactive) in assay [1]; > 100 µM (inactive) in assay [2]; > 100 µM (inactive) in [3]; 4.46 µM (inactive) in assay [4]; 38.7 µM (inactive) in [5]; > 100 µM (inactive) in [6]. For the same compound, the GI50 was > 100 µM (inactive) in assay [7]; 67.8 µM (inactive) in assay [8]; > 100 µM (inactive) in assay [9]; > 100 µM (inactive) in assay [10]; 41.8 µM (inactive) in assay [11]; 29.5 µM (inactive) in [12]. In addition, the GI50 in [13] is 27.7 µM (inactive); in assay [14], > 100 µM (inactive); in assay [15], > 100 µM (inactive); in assay [16], 65.3 µM (inactive); in [18], 25.7 µM (inactive); in assay [19] it was > 100 µM (inactive). Moreover, in assay [20], the GI50 was 56.9 µM (inactive).

For `Fc1cc2nc3n(c2cc1F)C(c1c(F)cccc1F)SC3` (stereo not drawn), the GI50 in assay [1] was 24.3 µM (inactive); in assay [2] it was 52 µM (inactive); in [3], 38.8 µM (inactive); in assay [4], 31.4 µM (inactive); in assay [5], 42 µM (inactive); in [6] it was 53.3 µM (inactive). Further, the GI50 is 38.2 µM (inactive) in assay [7]; 38.8 µM (inactive) in assay [9]; 84.5 µM (inactive) in assay [10]; 34.8 µM (inactive) in assay [11]; 16.8 µM (inactive) in assay [12]; 30.5 µM (inactive) in assay [13]. The GI50 in assay [14] is 41.1 µM (inactive); in assay [15], 34.3 µM (inactive); in assay [16], 61 µM (inactive); in assay [17], 45 µM (inactive); in assay [18], 37.1 µM (inactive); in assay [19], 51.9 µM (inactive). Also, the GI50 in [20] is 50.1 µM (inactive).

Regarding `CC(C)NC(=O)OCc1c(COC(=O)NC(C)C)c(-c2ccc[n+](COC(=O)C(C)(C)C)c2)n2c1CCC2`, the GI50 in [1] was 40.7 µM (inactive); in [2] it was > 91 µM (inactive); in assay [3], 46.6 µM (inactive); in assay [4], 57.5 µM (inactive); in assay [5] it was > 76.6 µM (inactive); in assay [6] it was > 100 µM (inactive). Also, the GI50 is > 73.6 µM (inactive) in [7]; 24.9 µM (inactive) in assay [8]; > 91.6 µM (inactive) in [9]; > 100 µM (inactive) in assay [10]; > 100 µM (inactive) in assay [11]; > 53.2 µM (inactive) in [12]. The GI50 in assay [13] was > 84.1 µM (inactive); in [14], > 100 µM (inactive); in assay [15], 27.6 µM (inactive); in assay [16] it was 38.8 µM (inactive); in assay [17] it was > 100 µM (inactive); in assay [18], 99.1 µM (inactive). Moreover, the values for the GI50 in assay [19] and in [20] were 54.1 µM (inactive) and > 67.5 µM (inactive), respectively.

Regarding `O=C1/C(=c2\s/c(=C\c3ccccc3)c(=O)n2-c2ccccc2)SC(=S)N1c1ccccc1`, the GI50 in assay [1] was 45.8 µM (inactive); in assay [2], 25.5 µM (inactive); in [3], 26.9 µM (inactive); in [4], 53.5 µM (inactive); in assay [5] it was 82.6 µM (inactive); in [6] it was > 100 µM (inactive). For the same compound, the GI50 was 32.3 µM (inactive) in assay [7]; 32.8 µM (inactive) in assay [8]; 33 µM (inactive) in assay [9]; 20.5 µM (inactive) in assay [10]; > 100 µM (inactive) in assay [11]; > 100 µM (inactive) in assay [12]. Further, the GI50 in assay [13] was > 100 µM (inactive); in assay [14] it was 71.8 µM (inactive); in assay [15], 0.131 µM (active); in assay [16], 22.3 µM (inactive); in [17], 93.3 µM (inactive); in [18] it was 34.8 µM (inactive). Also, the GI50 in assay [19] is 35.6 µM (inactive); in assay [20], 34.4 µM (inactive).

For the compound `NC(Cc1ccc(O)cn1)C(=O)O` (stereo not drawn), the GI50 in assay [1], in assay [2], in assay [3], in assay [4], in [5] and in assay [6] was > 100 µM (inactive) throughout. Also, the GI50 in [9] is > 100 µM (inactive); in assay [10], > 100 µM (inactive); in [11], > 100 µM (inactive); in assay [12] it was 33.8 µM (inactive); in assay [14], > 100 µM (inactive); in assay [15], > 100 µM (inactive). Further, the GI50 was > 100 µM (inactive) in assay [16]; > 100 µM (inactive) in [17]; > 100 µM (inactive) in assay [18]; > 100 µM (inactive) in [19]; 4.19 µM (inactive) in [20].

Regarding `C[C@H]1CC[C@@]2(NC1)O[C@H]1C[C@H]3[C@@H]4CC[C@H]5C[C@@H](O)CC[C@]5(C)[C@H]4CC[C@]3(C)[C@H]1[C@@H]2C`, the GI50 was 39.9 µM (inactive) in assay [1]; > 100 µM (inactive) in assay [2]; 45.3 µM (inactive) in [3]; > 100 µM (inactive) in assay [4]; 38.8 µM (inactive) in assay [5]; > 100 µM (inactive) in [6]. Moreover, the GI50 was > 100 µM (inactive) in assay [7]; > 100 µM (inactive) in assay [8]; 52.6 µM (inactive) in assay [9]; 32.2 µM (inactive) in [10]; 47.9 µM (inactive) in assay [11]; 51.1 µM (inactive) in assay [12]. Besides, the GI50 in assay [13] is > 100 µM (inactive); in assay [14] it was 71.8 µM (inactive); in assay [15], > 100 µM (inactive); in assay [16] it was 39.5 µM (inactive); in assay [18], > 100 µM (inactive); in [19] it was > 100 µM (inactive). The GI50 in assay [20] is 47 µM (inactive).

Consider `C=C1C(=O)O[C@H]2C/C(C)=C/CC/C(C)=C/CC[C@@](C)(O)[C@@H](I)C[C@@H]12`, for which the GI50 was 3 µM (inactive) in assay [1]; 3.42 µM (inactive) in assay [2]; 0.234 µM (active) in assay [3]; 5.57 µM (inactive) in assay [4]; 0.791 µM (active) in assay [5]; 14.5 µM (inactive) in [6]. For the same compound, the GI50 in assay [7] was 11.7 µM (inactive); in assay [8] it was 1.49 µM (inactive); in [9], 2.34 µM (inactive); in assay [10] it was 12.8 µM (inactive); in assay [11], 6.52 µM (inactive); in assay [12] it was 2.58 µM (inactive). Besides, the GI50 in [13] was 9.64 µM (inactive); in assay [14] it was 5.65 µM (inactive); in assay [15] it was 8.93 µM (inactive); in assay [16], 8.77 µM (inactive); in assay [17], 4.25 µM (inactive); in [18], 11.2 µM (inactive). The GI50 in assay [19] was 5.06 µM (inactive); in assay [20], 5.79 µM (inactive).

For the compound `CCOC(=O)NC(Nc1ncn(C(NC(=O)OCC)(C(F)(F)F)C(F)(F)F)n1)(C(F)(F)F)C(F)(F)F`, the GI50 in [1], in assay [2], in assay [3], in [4], in [5] and in assay [6] was > 100 µM (inactive) throughout. For the same compound, the GI50 in assay [8], in assay [9], in assay [10], in [11], in assay [12] and in [13] was > 100 µM (inactive) each time. Moreover, the GI50 in assay [14], in [15], in [16], in assay [17], in assay [18] and in [19] was > 100 µM (inactive) in each case. Further, in assay [20], the GI50 was > 100 µM (inactive).

For the compound `Clc1ccc(Cc2nc3cc(CCN4CCN(c5ccccc5)CC4)ccc3[nH]2)cc1`, the GI50 is 6.87 µM (inactive) in [1]; 22.5 µM (inactive) in assay [2]; 12.6 µM (inactive) in assay [3]; 16 µM (inactive) in [4]; 17 µM (inactive) in [5]; 26.1 µM (inactive) in assay [6]. The GI50 in [7] was 15 µM (inactive); in [8], > 100 µM (inactive); in assay [9] it was 21 µM (inactive); in assay [10], 13 µM (inactive); in [11], 5.58 µM (inactive); in assay [12], 12.6 µM (inactive). Besides, the GI50 in [13] was 5.73 µM (inactive); in assay [14] it was 11.3 µM (inactive); in assay [15], 14.4 µM (inactive); in assay [16], 19.5 µM (inactive); in [17], > 100 µM (inactive); in assay [18], 13.4 µM (inactive). Further, the GI50 in assay [19] was 16 µM (inactive); in [20] it was 20.3 µM (inactive).
